The structures appear in SMILES notation.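 Growth conditions: 96-well plates. Treatment: test compound, 48 hours, 5 concentrations. Analysis: linear interpolation between bracketing concentrations; unreached endpoints set to highest concentration. TGI is the concentration that stops growth completely.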

The subject of the first experiment is PC-3 prostate. In words: NCI anticancer screen, dose series, 48 h.
Compound `CC1=NC(=Cc2cccc(Cl)c2)C(=O)N1n1c(-c2ccccc2)nc2ccccc2c1=O` came in with a TGI above 100 µM.

The next experiment has as its system SF-295 CNS. In words: NCI anticancer screen, dose series, 48 h.
Compound `COC(=O)[C@@H]1[C@H](OC(C)=O)CCC2[C@@]3(C[C@@H](c4ccoc4)O[C@@H]3OC)[C@H](C)CC[C@]21C(=O)OC` (stereo partly specified) yielded a TGI above 25 µM.

As for `CC(C)(C)OC(=O)NC(Cc1ccccc1)OCc1ccccc1` (stereo unspecified), the TGI turned out to be 31.2 µM.

In the case of `COc1cc2c3c(c1)CCCN3CCC2`, the TGI was above 10 µM.

`Cc1ccc(NC(Nc2ccc(C)cc2C)=C(/C=C(\Cl)[N+](=O)[O-])[N+](=O)[O-])c(C)c1` had a TGI of 31.2 µM.

As for `CC1(/C=C/CCSc2ccccc2)CC(=O)C2CC1C2(C)C` (stereo unspecified), the TGI was above 100 µM.

On to `COc1cc(/C=C/c2nc(NC(=S)Nc3ccccc3)nnc2C)cc(OC)c1OC`, for which the TGI was above 100 µM.

The compound `CC1(C)C=Cc2c(cc(O)c3c(=O)c4cc(Cl)ccc4[nH]c23)O1` yielded a TGI of 8.25 µM.

For `CC(=O)c1ccc2c(c1)CC1(C2)Cc2cc3c(cc2C1=O)CCC3` (stereo unspecified), the TGI was determined as 49 µM.

With `CCc1nn(CN2CCOCC2)c(=S)n1/N=C/c1ccc(-c2ccc(Cl)cc2)o1`, the TGI was above 100 µM.

`COc1cc(C2SCC(=O)N2c2cccc(Cl)c2)cc(OC)c1OC` (stereo unspecified) came in with a TGI above 100 µM.

In the case of `CS(=O)(=O)OCC1CN(S(C)(=O)=O)c2cc(O)ccc21` (stereo unspecified), the TGI was 14.6 µM.

Consider `CCOC(=O)C1=NOC2(C=C(Br)C(=O)C(Br)=C2)C1`, for which the TGI was 32.4 µM.

Compound `Oc1ccc(-c2cc(-c3cc(-c4ccc(O)cc4)no3)on2)cc1` had a TGI above 100 µM.

`O=c1[nH]cc(-c2c[nH]c3ccccc23)nc1-c1c[nH]c2ccccc12` gave a TGI of 19 µM.

Consider `Nc1n[n+](CC(=O)c2ccccc2)c2sc(-c3ccccc3)nn12`, for which the TGI was above 100 µM.

Turning to `CCOC(=O)c1c(C)nc2c1c(CN(C)C)c(O)c1[nH]c(C)c(C)nc12`, the TGI came to 62.2 µM.

Take `CC1=NC(=Cc2cccc(Cl)c2)C(=O)N1n1c(-c2ccccc2)nc2ccccc2c1=O`: the TGI is above 100 µM.

In a further experiment the test system is SK-MEL-5 melanoma. In words: NCI anticancer screen, dose series, 48 h.
Take `COC(=O)[C@@H]1[C@H](OC(C)=O)CCC2[C@@]3(C[C@@H](c4ccoc4)O[C@@H]3OC)[C@H](C)CC[C@]21C(=O)OC` (stereo partly specified): the TGI was above 25 µM.

Compound `CC(C)(C)OC(=O)NC(Cc1ccccc1)OCc1ccccc1` (stereo unspecified) came in with a TGI of 31 µM.

In turn, `COc1cc2c3c(c1)CCCN3CCC2` returned a TGI above 10 µM.

`Cc1ccc(NC(Nc2ccc(C)cc2C)=C(/C=C(\Cl)[N+](=O)[O-])[N+](=O)[O-])c(C)c1` gave a TGI of 13.4 µM.

Consider `CC1(/C=C/CCSc2ccccc2)CC(=O)C2CC1C2(C)C` (stereo unspecified), for which the TGI was 23 µM.

Compound `COc1cc(/C=C/c2nc(NC(=S)Nc3ccccc3)nnc2C)cc(OC)c1OC` had a TGI of 29.1 µM.

Regarding `CC1(C)C=Cc2c(cc(O)c3c(=O)c4cc(Cl)ccc4[nH]c23)O1`, the TGI is 6.33 µM.

Take `CC(=O)c1ccc2c(c1)CC1(C2)Cc2cc3c(cc2C1=O)CCC3` (stereo unspecified): the TGI is 22.5 µM.

`CCc1nn(CN2CCOCC2)c(=S)n1/N=C/c1ccc(-c2ccc(Cl)cc2)o1`: the TGI was above 100 µM.

The compound `COc1cc(C2SCC(=O)N2c2cccc(Cl)c2)cc(OC)c1OC` (stereo unspecified) showed a TGI above 100 µM.

As to `CS(=O)(=O)OCC1CN(S(C)(=O)=O)c2cc(O)ccc21` (stereo unspecified), the TGI stood at 3.52 µM.

The compound `CCOC(=O)C1=NOC2(C=C(Br)C(=O)C(Br)=C2)C1` had a TGI of 21.7 µM.

On to `Oc1ccc(-c2cc(-c3cc(-c4ccc(O)cc4)no3)on2)cc1`, for which the TGI was above 100 µM.

`O=c1[nH]cc(-c2c[nH]c3ccccc23)nc1-c1c[nH]c2ccccc12` returned a TGI of 26.1 µM.

With `Nc1n[n+](CC(=O)c2ccccc2)c2sc(-c3ccccc3)nn12`, the TGI is above 100 µM.

Consider `CCOC(=O)c1c(C)nc2c1c(CN(C)C)c(O)c1[nH]c(C)c(C)nc12`, for which the TGI stood at 29.1 µM.

`Cc1cc(C)c(-n2[nH]c(=O)n(C)c2=O)c(C)c1` gave a TGI above 100 µM.

As to `CC1=NC(=Cc2cccc(Cl)c2)C(=O)N1n1c(-c2ccccc2)nc2ccccc2c1=O`, the TGI was above 100 µM.

The test system of the next experiment is SW-620 colon. In words: NCI anticancer screen, dose series, 48 h.
For the compound `COC(=O)[C@@H]1[C@H](OC(C)=O)CCC2[C@@]3(C[C@@H](c4ccoc4)O[C@@H]3OC)[C@H](C)CC[C@]21C(=O)OC` (stereo partly specified), the TGI is above 25 µM.

`CC(C)(C)OC(=O)NC(Cc1ccccc1)OCc1ccccc1` (stereo unspecified) displayed a TGI of 34.2 µM.

Take `COc1cc2c3c(c1)CCCN3CCC2`: the TGI was above 10 µM.

Compound `Cc1ccc(NC(Nc2ccc(C)cc2C)=C(/C=C(\Cl)[N+](=O)[O-])[N+](=O)[O-])c(C)c1` had a TGI of 4.02 µM.

Compound `CC1(/C=C/CCSc2ccccc2)CC(=O)C2CC1C2(C)C` (stereo unspecified) displayed a TGI above 100 µM.

In the case of `COc1cc(/C=C/c2nc(NC(=S)Nc3ccccc3)nnc2C)cc(OC)c1OC`, the TGI is above 100 µM.

`CC1(C)C=Cc2c(cc(O)c3c(=O)c4cc(Cl)ccc4[nH]c23)O1` returned a TGI above 10 µM.

As for `CC(=O)c1ccc2c(c1)CC1(C2)Cc2cc3c(cc2C1=O)CCC3` (stereo unspecified), the TGI is above 100 µM.

For `CCc1nn(CN2CCOCC2)c(=S)n1/N=C/c1ccc(-c2ccc(Cl)cc2)o1`, the TGI is above 100 µM.

`COc1cc(C2SCC(=O)N2c2cccc(Cl)c2)cc(OC)c1OC` (stereo unspecified) displayed a TGI above 100 µM.

Take `CS(=O)(=O)OCC1CN(S(C)(=O)=O)c2cc(O)ccc21` (stereo unspecified): the TGI came to 28.3 µM.

In turn, `CCOC(=O)C1=NOC2(C=C(Br)C(=O)C(Br)=C2)C1` came in with a TGI of 2.77 µM.

`Oc1ccc(-c2cc(-c3cc(-c4ccc(O)cc4)no3)on2)cc1` had a TGI above 100 µM.

In the case of `O=c1[nH]cc(-c2c[nH]c3ccccc23)nc1-c1c[nH]c2ccccc12`, the TGI amounted to 18.1 µM.

Consider `Nc1n[n+](CC(=O)c2ccccc2)c2sc(-c3ccccc3)nn12`, for which the TGI is above 100 µM.

Compound `CCOC(=O)c1c(C)nc2c1c(CN(C)C)c(O)c1[nH]c(C)c(C)nc12` registered a TGI of 95.2 µM.

As to `Cc1cc(C)c(-n2[nH]c(=O)n(C)c2=O)c(C)c1`, the TGI was above 100 µM.

Compound `CC1=NC(=Cc2cccc(Cl)c2)C(=O)N1n1c(-c2ccccc2)nc2ccccc2c1=O` had a TGI above 100 µM.

A further experiment concerns U251 CNS. In words: NCI anticancer screen, dose series, 48 h.
As to `COC(=O)[C@@H]1[C@H](OC(C)=O)CCC2[C@@]3(C[C@@H](c4ccoc4)O[C@@H]3OC)[C@H](C)CC[C@]21C(=O)OC` (stereo partly specified), the TGI is above 25 µM.

With `CC(C)(C)OC(=O)NC(Cc1ccccc1)OCc1ccccc1` (stereo unspecified), the TGI is above 10 µM.

`COc1cc2c3c(c1)CCCN3CCC2` gave a TGI above 10 µM.

With `Cc1ccc(NC(Nc2ccc(C)cc2C)=C(/C=C(\Cl)[N+](=O)[O-])[N+](=O)[O-])c(C)c1`, the TGI was 23.6 µM.

On to `CC1(/C=C/CCSc2ccccc2)CC(=O)C2CC1C2(C)C` (stereo unspecified), for which the TGI was above 83.7 µM.

`COc1cc(/C=C/c2nc(NC(=S)Nc3ccccc3)nnc2C)cc(OC)c1OC`: the TGI is above 100 µM.

As for `CC1(C)C=Cc2c(cc(O)c3c(=O)c4cc(Cl)ccc4[nH]c23)O1`, the TGI was above 10 µM.

`CC(=O)c1ccc2c(c1)CC1(C2)Cc2cc3c(cc2C1=O)CCC3` (stereo unspecified) came in with a TGI above 100 µM.

`CCc1nn(CN2CCOCC2)c(=S)n1/N=C/c1ccc(-c2ccc(Cl)cc2)o1` returned a TGI above 100 µM.

On to `COc1cc(C2SCC(=O)N2c2cccc(Cl)c2)cc(OC)c1OC` (stereo unspecified), for which the TGI was above 100 µM.

For the compound `CS(=O)(=O)OCC1CN(S(C)(=O)=O)c2cc(O)ccc21` (stereo unspecified), the TGI turned out to be 7.26 µM.

For the compound `CCOC(=O)C1=NOC2(C=C(Br)C(=O)C(Br)=C2)C1`, the TGI turned out to be 26.3 µM.

`Oc1ccc(-c2cc(-c3cc(-c4ccc(O)cc4)no3)on2)cc1` returned a TGI above 100 µM.

`O=c1[nH]cc(-c2c[nH]c3ccccc23)nc1-c1c[nH]c2ccccc12` gave a TGI of 70.8 µM.

`Nc1n[n+](CC(=O)c2ccccc2)c2sc(-c3ccccc3)nn12` returned a TGI above 100 µM.

As to `CCOC(=O)c1c(C)nc2c1c(CN(C)C)c(O)c1[nH]c(C)c(C)nc12`, the TGI was 68.7 µM.

The compound `Cc1cc(C)c(-n2[nH]c(=O)n(C)c2=O)c(C)c1` yielded a TGI above 100 µM.
